According to patent US7973147B2, “K04-0144 substance and a process for production thereof” (The Kitasato Institute, priority 2006, dated 2011):
≈ marks a conversion by molar mass, not a printed value. Entries after “also recorded” stand apart in the source; their conditions may differ. Where two headings read alike, the source gives them in different places.

Legend:
[1] = tested on: clinical isolate of MRSA (K24 strain); assay: MRSA infectious model using silkworms; format: in vivo, silkworm; conditions: 72 hours after the inoculation
Method: As an alternative method for in vivo MRSA infection model using animals, the infection system using silkworms has been reported (Kaito et al, Microbial Pathogenesis, 32: 183-190, 2002). Effect of K04-0144A substance was measured according to this method.
Test organism used was the clinical isolate of MRSA (K24 strain). The MRSA was cultured statically using LB-10 medium (DIFCO) at 37° C. for 18 hours, and a 50 μl of the cultured strain was inoculated into the hemolymph of silkworm, 5 instar, 2nd day, (about 2 g, Ehime sansyu eggs Co., Japan). K04-0144A substance was prepared to a solution of 1 mg/ml, and 50 μl of the solution were administered by using syringe to the dorsal vessel of 5 silkworms infected with MRSA (25 mg/kg). Effect of the K04-0144A substance was evaluated by comparing the survival rate between a group with administering the sample and a group without administering the sample during the raising period of 72 hours after the inoculation. […] Further, all silkworms administered with 50 μl of MRSA bacterial suspension died within 72 hours after the inoculation.

Solubility in solvent = format: physicochemical; conditions: listed as K04-0144A substance
MRSA N315 IR94 HR-1 = assay: MIC, agar plate dilution method; format: cell-based, methicillin-resistant Staphylococcus aureus; conditions: Staphylococcus aureus, 20 h
Method: (§1) Assay of minimum inhibitory concentration (MIC) was performed according to the agar plate dilution method (Method of Japan Society of Chemotherapy, CHEMOTHERAPY 29, 76-79, 1981).
(§2) Test organisms used were 27 types of microorganisms including clinical isolates of methicillin-resistant Staphylococcus aureus. Each test organism was cultured in Mueller-Hinton broth (2.1% w/v) (DIFCO) at 37° C. for 20 hours, and the cultured cells were suspended to about 10^6 cell counts/ml in the same medium, then was used as the microbial suspension for inoculation. The prepared microbial suspension was smeared by using the microplanter on MHA medium (Mueller-Hinton broth 2.1% (w/v) and agar 1.5%) containing K04-0144A substance, K04-0144B substance or K04-0144C substance, each of which was subjected to two-fold stepwise dilution from 128 μg/ml. After culturing at 37° C. for 20 hours, MIC was determined by macroscopically confirming the growth of microorganisms. Vancomycin, arbekacin and linezolid were used as a comparative control.

MRSA 70 = assay: MIC, agar plate dilution method; format: cell-based, methicillin-resistant Staphylococcus aureus; conditions: Staphylococcus aureus
Method: as §1, §2

MRSA 92-1191 = assay: MIC, agar plate dilution method; format: cell-based, methicillin-resistant Staphylococcus aureus; conditions: Staphylococcus aureus
Method: as §1, §2

silkworms = assay: Toxicity against silkworms (substance only, no infection); format: in vivo, silkworm; conditions: 25 mg/kg, uninfected silkworms, 72 hours
S. aureus 8325(pEP2104) = assay: MIC, agar plate dilution method; format: cell-based; conditions: Staphylococcus aureus, 20 h
Method: as §1, §2

C. freundii ATCC8090 = assay: MIC, agar plate dilution method; format: cell-based; conditions: Citrobacter freundii
Method: as §1, §2

E. coli NIHJ JC-2 = assay: MIC, agar plate dilution method; format: cell-based; conditions: Escherichia coli
Method: as §1, §2

E. aerogenes NCTC10006 = assay: MIC, agar plate dilution method; format: cell-based; conditions: Klebsiella aerogenes
Method: as §1, §2

P. aeruginosa 46001 = assay: MIC, agar plate dilution method; format: cell-based
Method: as §1, §2

S. aureus 8325(pMS97) = assay: MIC, agar plate dilution method; format: cell-based; conditions: Staphylococcus aureus, 20 h
Method: as §1, §2

M. morganii IID Kono = assay: MIC, agar plate dilution method; format: cell-based; conditions: Morganella morganii
Method: as §1, §2

S. epidermidis IFO12648 = assay: MIC, agar plate dilution method; format: cell-based; conditions: Staphylococcus epidermidis
Method: as §1, §2

P. mirabilis IFO3849 = assay: MIC, agar plate dilution method; format: cell-based; conditions: Proteus mirabilis
Method: as §1, §2

P. vulgaris OX-19 = assay: MIC, agar plate dilution method; format: cell-based; conditions: Proteus vulgaris
Method: as §1, §2

[2] = tested on: E. faecium NTCT12203(VanA); assay: MIC, agar plate dilution method; format: cell-based; conditions: Enterococcus faecium
Method: as §1, §2

S. aureus ISP217 = assay: MIC, agar plate dilution method; format: cell-based; conditions: Staphylococcus aureus
Method: as §1, §2

S. aureus FDA209P = assay: MIC, agar plate dilution method; format: cell-based; conditions: Staphylococcus aureus
Method: as §1, §2

E. cloacae IFO13535 = assay: MIC, agar plate dilution method; format: cell-based; conditions: Enterobacter cloacae
Method: as §1, §2

S. aureus ISP447 = assay: MIC, agar plate dilution method; format: cell-based; conditions: Staphylococcus aureus
Method: as §1, §2

M. luteus ATCC9341 = assay: MIC, agar plate dilution method; format: cell-based; conditions: Micrococcus luteus
Method: as §1, §2

A. calcoaceticus IFO2552 = assay: MIC, agar plate dilution method; format: cell-based; conditions: Acinetobacter calcoaceticus
Method: as §1, §2

[3] = tested on: E. facecalis NTCT12201(VanA); assay: MIC, agar plate dilution method; format: cell-based
Method: as §1, §2

P. aeruginosa E-2 = assay: MIC, agar plate dilution method; format: cell-based; conditions: Pseudomonas aeruginosa
Method: as §1, §2

E. faecalis ATCC21212 = assay: MIC, agar plate dilution method; format: cell-based; conditions: Enterococcus faecalis
Method: as §1, §2

S. marcescens IFO12648 = assay: MIC, agar plate dilution method; format: cell-based; conditions: Serratia marcescens
Method: as §1, §2

S. aureus Smith = assay: MIC, agar plate dilution method; format: cell-based; conditions: Staphylococcus aureus
Method: as §1, §2

K. pneumoniae NCTN9632 = assay: MIC, agar plate dilution method; format: cell-based; conditions: Klebsiella pneumoniae
Method: as §1, §2

[4] = tested on: MRSA (Clinical isolate, the Kitasato Hospital, Japan); assay: Enhancing action of K04-0144D substance on antibiotic activities, broth microdilution method; format: cell-based, methicillin-resistant Staphylococcus aureus
MRSA N315 IR94 = assay: MIC, agar plate dilution method; format: cell-based, methicillin-resistant Staphylococcus aureus; conditions: Staphylococcus aureus, 20 h
Method: as §1, §2

C=C(C/C=C(\C)CCC=C(C)C)CCC(C)(C)/C=C/CC/C(C)=C\COC(COP(=O)(O)OC1OC(C(N)=O)C(C)(O)C(OC(N)=O)C1OC1OC(COC2OC(CO)C(O)C(O)C2O)C(OC2OC(C)C(OC3OC(C(=O)O)C(O)C(O)C3O)C(O)C2NC(C)=O)C(O)C1NC(C)=O)C(=O)O (stereo not drawn) [K04-0144A]
survival of silkworms infected with MRSA ([1]; 25 mg/kg into dorsal vessel, untreated infected silkworms all died within 72 hours): all survived after 72 hours of the inoculation | Solubility in solvent (Solubility in solvent): Soluble in methanol and water DMSO; also recorded: Insoluble in acetone, chloroform and hexane | MIC (MRSA N315 IR94 HR-1): 0.125 µg/mL (≈ 0.084 µM) | MIC (MRSA 70; MRSA 70, 37° C., 20 hours, read-out: MIC): 0.06 µg/mL (≈ 0.0403 µM) | MIC (MRSA 92-1191; MRSA 92-1191, 37° C., 20 hours, read-out: MIC): 0.25 µg/mL (≈ 0.168 µM) | toxicity against silkworms (survival, substance only) (silkworms): no toxicity against silkworms | MIC (S. aureus 8325(pEP2104)): 0.06 µg/mL (≈ 0.0403 µM) | MIC (C. freundii ATCC8090; C. freundii ATCC8090, 37° C., 20 hours, read-out: MIC): > 16 µg/mL | MIC (E. coli NIHJ JC-2; NIHJJC2, E. coli NIHJ JC-2, 37° C., 20 hours, read-out: MIC): > 16 µg/mL | MIC (E. aerogenes NCTC10006; E. aerogenes NCTC10006, 37° C., 20 hours, read-out: MIC): > 16 µg/mL | MIC (P. aeruginosa 46001; Pseudomonas aeruginosa, P. aeruginosa 46001, 37° C., 20 hours, read-out: MIC): > 16 µg/mL | MIC (S. aureus 8325(pMS97)): 0.5 µg/mL (≈ 0.336 µM) | MIC (M. morganii IID Kono; M. morganii IID Kono, 37° C., 20 hours, read-out: MIC): > 16 µg/mL | MIC (S. epidermidis IFO12648; S. epidermidis IFO12648, 37° C., 20 hours, read-out: MIC): 4 µg/mL (≈ 2.69 µM) | MIC (P. mirabilis IFO3849; P. mirabilis IFO3849, 37° C., 20 hours, read-out: MIC): > 16 µg/mL | MIC (P. vulgaris OX-19; OX19, P. vulgaris OX-19, 37° C., 20 hours, read-out: MIC): > 16 µg/mL | MIC ([2]; E. faecium NTCT12203(VanA), 37° C., 20 hours, read-out: MIC): > 16 µg/mL | MIC (S. aureus ISP217; S. aureus ISP217, 37° C., 20 hours, read-out: MIC): 0.25 µg/mL (≈ 0.168 µM) | MIC (S. aureus FDA209P; S. aureus FDA209P, 37° C., 20 hours, read-out: MIC): 1 µg/mL (≈ 0.672 µM) | MIC (E. cloacae IFO13535; E. cloacae IFO13535, 37° C., 20 hours, read-out: MIC): > 16 µg/mL | MIC (S. aureus ISP447; S. aureus ISP447, 37° C., 20 hours, read-out: MIC): 0.25 µg/mL (≈ 0.168 µM) | MIC (M. luteus ATCC9341; M. luteus ATCC9341, 37° C., 20 hours, read-out: MIC): > 16 µg/mL | MIC (A. calcoaceticus IFO2552; A. calcoaceticus IFO2552, 37° C., 20 hours, read-out: MIC): 16 µg/mL (≈ 10.8 µM) | MIC ([3]; E. facecalis NTCT12201(VanA), 37° C., 20 hours, read-out: MIC): 1 µg/mL (≈ 0.672 µM) | MIC (P. aeruginosa E-2; E2, P. aeruginosa E-2, 37° C., 20 hours, read-out: MIC): > 16 µg/mL | MIC (E. faecalis ATCC21212; E. faecalis ATCC21212, 37° C., 20 hours, read-out: MIC): 1 µg/mL (≈ 0.672 µM) | MIC (S. marcescens IFO12648; S. marcescens IFO12648, 37° C., 20 hours, read-out: MIC): > 16 µg/mL | MIC (S. aureus Smith; S. aureus Smith, 37° C., 20 hours, read-out: MIC): 1 µg/mL (≈ 0.672 µM) | MIC (K. pneumoniae NCTN9632; K. pneumoniae NCTN9632, 37° C., 20 hours, read-out: MIC): > 16 µg/mL

CN[C@H](CC(C)C)C(=O)N[C@H]1C(=O)N[C@@H](CC(N)=O)C(=O)N[C@H]2C(=O)N[C@H]3C(=O)N[C@H](C(=O)N[C@H](C(=O)O)c4cc(O)cc(O)c4-c4cc3ccc4O)[C@H](O)c3ccc(c(Cl)c3)Oc3cc2cc(c3O[C@@H]2O[C@H](CO)[C@@H](O)[C@H](O)[C@H]2O[C@H]2C[C@](C)(N)[C@H](O)[C@H](C)O2)Oc2ccc(cc2Cl)[C@H]1O [vancomycin, reference compound]
survival of silkworms infected with MRSA ([1]; 25 mg/kg): survived after 72 hours of the inoculation | enhancing action of K04-0144D substance on the antibiotic's activity ([4]; K04-0144D substance 16 μg/ml): no enhancing action | Ratio (−/+K04-0144D) ([4]; MIC alone / MIC with K04-0144D substance 16 μg/ml): 1 | MIC ([4]; Staphylococcus aureus, MRSA, read-out: Minimum Inhibitory Concentration (−)): 1 µg/mL | MIC (MRSA N315 IR94 HR-1): 0.5 µg/mL (≈ 0.345 µM) | MIC (MRSA 70; MRSA, 20 h): 0.5 µg/mL (≈ 0.345 µM) | MIC (MRSA 92-1191; MRSA, 20 h): 1 µg/mL (≈ 0.69 µM) | MIC (MRSA N315 IR94): 0.5 µg/mL (≈ 0.345 µM) | MIC (S. aureus 8325(pEP2104)): 2 µg/mL (≈ 1.38 µM) | MIC (C. freundii ATCC8090; ATCC8090, 20 h): > 32 µg/mL | MIC (E. coli NIHJ JC-2; NIHJJC2, 20 h): > 32 µg/mL | MIC (E. aerogenes NCTC10006; NCTC10006, 20 h): > 32 µg/mL | MIC (P. aeruginosa 46001; Pseudomonas aeruginosa, 46001, 20 h): > 32 µg/mL | MIC (S. aureus 8325(pMS97)): 1 µg/mL (≈ 0.69 µM) | MIC (M. morganii IID Kono; 20 h): > 32 µg/mL | MIC (S. epidermidis IFO12648; IFO12648, 20 h): 1 µg/mL (≈ 0.69 µM) | MIC (P. mirabilis IFO3849; IFO3849, 20 h): > 32 µg/mL | MIC (P. vulgaris OX-19; OX19, 20 h): > 32 µg/mL | MIC ([2]; 20 h): > 32 µg/mL | MIC (S. aureus ISP217; ISP217, 20 h): 1 µg/mL (≈ 0.69 µM) | MIC (S. aureus FDA209P; FDA209P, 20 h): 1 µg/mL (≈ 0.69 µM) | MIC (E. cloacae IFO13535; IFO13535, 20 h): > 32 µg/mL | MIC (S. aureus ISP447; ISP447, 20 h): 1 µg/mL (≈ 0.69 µM) | MIC (M. luteus ATCC9341; ATCC9341, 20 h): 1 µg/mL (≈ 0.69 µM) | MIC (A. calcoaceticus IFO2552; IFO2552, 20 h): > 32 µg/mL | MIC ([3]; 20 h): > 32 µg/mL | MIC (P. aeruginosa E-2; E2, 20 h): > 32 µg/mL | MIC (E. faecalis ATCC21212; ATCC21212, 20 h): 4 µg/mL (≈ 2.76 µM) | MIC (S. marcescens IFO12648; IFO12648, 20 h): > 32 µg/mL | MIC (S. aureus Smith; 20 h): 1 µg/mL (≈ 0.69 µM) | MIC (K. pneumoniae NCTN9632; NCTN9632, 20 h): > 32 µg/mL
